Results as given in a compilation of properties of binary mixtures (doi:10.1016/j.jct.2022.106789).

Experiment: xn = mol fraction of the nth substance listed
Conditions: 100 kPa

CCCCCC[N+](CC)(CC)CC.O=S(=O)([N-]S(=O)(=O)C(F)(F)F)C(F)(F)F + CC(C)O
Conditions | speed of sound, 293.15 K [m/s] | speed of sound, 298.15 K [m/s] | speed of sound, 303.15 K [m/s] | speed of sound, 308.15 K [m/s] | speed of sound, 313.15 K [m/s] | viscosity, 293.15 K [mPa·s] | viscosity, 298.15 K [mPa·s] | viscosity, 303.15 K [mPa·s] | viscosity, 308.15 K [mPa·s] | viscosity, 313.15 K [mPa·s]
x2 = 0 | 1295.3 | 1282.7 | 1270.4 | 1258.3 | 1246.7 | 241 | 187 | 138 | 105 | 80.7
x2 = 0.096 | – | 1277.1 | 1264.8 | 1252.7 | – | – | 136 | 109 | 90 | –
x2 = 0.2045 | 1282.6 | – | 1257.8 | 1246 | 1233.9 | 108 | – | 83.1 | 68.1 | 55.3
x2 = 0.3101 | 1273.6 | – | – | 1236.2 | 1224 | 74.1 | – | – | 49.3 | 41.4
x2 = 0.4056 | 1264 | 1250.9 | 1237.9 | – | 1213.3 | 55.3 | 50.3 | 44.3 | – | 30
x2 = 0.4987 | 1253.3 | – | 1226.8 | – | 1201.7 | 42.1 | – | 31.8 | – | 21.9
x2 = 0.5916 | 1240.8 | 1227.6 | 1214.5 | – | – | 30.7 | 25.3 | 20.9 | – | –
x2 = 0.7088 | 1220.1 | 1206.5 | 1192.8 | 1179.4 | 1166 | 17.9 | 14.4 | 12.1 | 10.4 | 9.33
x2 = 0.8015 | 1198 | 1184 | 1170.3 | – | 1142.5 | 11.2 | 8.83 | 7.01 | – | 4.94
x2 = 0.9193 | 1167 | 1151.8 | 1136.7 | – | 1106.5 | 5.24 | 4.36 | 3.67 | – | 2.38
x2 = 0.9503 | 1161 | – | – | – | – | – | – | – | – | –

CCCCCC[n+]1ccn(C)c1.O=S(=O)([O-])C(F)(F)F + CC(C)O
Conditions | speed of sound, 293.15 K [m/s] | speed of sound, 298.15 K [m/s] | speed of sound, 303.15 K [m/s] | speed of sound, 308.15 K [m/s] | speed of sound, 313.15 K [m/s] | viscosity, 293.15 K [mPa·s] | viscosity, 298.15 K [mPa·s] | viscosity, 303.15 K [mPa·s] | viscosity, 308.15 K [mPa·s] | viscosity, 313.15 K [mPa·s]
x2 = 0 | 1376.7 | 1364.8 | 1353.2 | 1342.1 | 1330.9 | 195 | 151 | 116 | 91.1 | 74
x2 = 0.1282 | 1366.5 | – | 1343 | 1331.5 | 1319.9 | 129 | – | 80 | 61.9 | 51.6
x2 = 0.2454 | 1353 | – | 1329.3 | 1316.1 | 1305.8 | 87.1 | – | 57.5 | 44.6 | 37.2
x2 = 0.3506 | 1338.3 | 1326 | – | 1301 | 1290.9 | 60 | 48.3 | – | 31.8 | 27
x2 = 0.469 | 1319.3 | – | 1294 | 1281.8 | 1270.2 | 37.8 | – | 27.2 | 21 | 18
x2 = 0.5728 | 1299.1 | 1286 | 1273.8 | 1260.3 | 1247.8 | 24.5 | 20.4 | 17.1 | 14.2 | 11.9
x2 = 0.6564 | 1280 | 1266.1 | 1253.7 | 1240.2 | 1227.4 | 16.1 | 13.6 | 11.3 | 9.6 | 8.4
x2 = 0.7574 | 1251.3 | 1237.2 | 1223.1 | 1209.3 | 1195.7 | 9.63 | 8.06 | 6.67 | 5.85 | 5.11
x2 = 0.8422 | 1221.4 | 1207.1 | 1192.8 | 1178.4 | 1163.3 | 5.86 | 4.82 | 4.21 | 3.59 | 3.13
x2 = 0.9231 | – | 1175.5 | 1159.6 | 1142.7 | – | – | 3.15 | 2.68 | 2.34 | –

CC(C)O + CCCCCC[N+](CC)(CC)CC.O=S(=O)([N-]S(=O)(=O)C(F)(F)F)C(F)(F)F
x1 = 1
Conditions | speed of sound [m/s] | viscosity [mPa·s]
293.15 K | 1155.7 | 2.42
313.15 K | 1085.8 | 1.34

CC(C)O + CCCCCC[n+]1ccn(C)c1.O=S(=O)([O-])C(F)(F)F
x1 = 1
Conditions | speed of sound [m/s] | viscosity [mPa·s]
293.15 K | 1155.7 | 2.42
303.15 K | 1120.8 | 1.73
313.15 K | 1085.8 | 1.34
